These results are taken from the Kinase Knowledgebase extract (Sharma et al. 2016).

Bounds are passed on as bounds.

The target of this assay is PIK3CD (Human) (UniProt O00329). In words: Enzyme Assay.
PIK3CD (Human), sequence (O00329 whole entry, looked up): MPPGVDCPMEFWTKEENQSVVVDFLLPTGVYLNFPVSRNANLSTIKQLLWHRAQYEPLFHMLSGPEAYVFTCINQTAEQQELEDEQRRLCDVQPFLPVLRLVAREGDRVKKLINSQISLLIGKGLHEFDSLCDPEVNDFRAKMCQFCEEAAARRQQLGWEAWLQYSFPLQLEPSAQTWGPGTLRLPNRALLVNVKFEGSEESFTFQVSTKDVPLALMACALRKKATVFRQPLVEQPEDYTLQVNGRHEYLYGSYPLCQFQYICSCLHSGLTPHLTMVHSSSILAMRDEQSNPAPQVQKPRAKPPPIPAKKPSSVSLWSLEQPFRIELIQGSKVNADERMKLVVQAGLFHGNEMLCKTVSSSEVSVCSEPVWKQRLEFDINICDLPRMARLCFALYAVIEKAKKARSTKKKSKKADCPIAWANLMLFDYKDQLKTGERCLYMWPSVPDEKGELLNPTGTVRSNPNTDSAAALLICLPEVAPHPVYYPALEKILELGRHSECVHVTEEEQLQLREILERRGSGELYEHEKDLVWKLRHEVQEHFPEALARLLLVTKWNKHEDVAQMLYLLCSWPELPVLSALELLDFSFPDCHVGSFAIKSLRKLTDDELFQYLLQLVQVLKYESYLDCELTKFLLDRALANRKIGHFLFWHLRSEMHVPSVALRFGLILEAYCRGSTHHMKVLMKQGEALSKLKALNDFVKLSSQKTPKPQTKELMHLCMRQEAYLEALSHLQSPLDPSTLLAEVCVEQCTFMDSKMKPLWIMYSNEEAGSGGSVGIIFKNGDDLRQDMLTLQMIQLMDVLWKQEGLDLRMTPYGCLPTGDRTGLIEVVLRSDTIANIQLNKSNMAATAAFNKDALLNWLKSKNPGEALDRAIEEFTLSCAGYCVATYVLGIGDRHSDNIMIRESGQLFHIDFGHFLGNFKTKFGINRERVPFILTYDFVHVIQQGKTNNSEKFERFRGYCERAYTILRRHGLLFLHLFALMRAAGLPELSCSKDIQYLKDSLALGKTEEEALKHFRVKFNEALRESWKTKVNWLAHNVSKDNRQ
As usually defined, the IC50 is the concentration that gives 50% inhibition. For the compound `C[C@H](Nc1nc(N)nc(N)c1C#N)c1nc2c(Cl)ccc(Cl)c2c(=O)n1-c1ccccc1`, the half-inhibitory concentration (IC50) was no more than 1 nM.

As for `C[C@H](Nc1nc(N)nc(N)c1C#N)c1nc2cccc(Cl)c2c(=O)n1-c1cccc(C#N)c1`, the concentration for half-maximal inhibition (IC50) was in the range of 1 to 10 nM. The same measure for `C[C@H](Nc1nc(N)nc(N)c1Cl)c1nc2cccc(Cl)c2c(=O)n1-c1ccccc1`: no more than 1 nM. For the compound `CC[C@H](Nc1nc(N)nc(N)c1C#N)c1nc2c(F)ccc(F)c2c(=O)n1-c1cccc(F)c1`, the IC50 was 1 to 10 nM. The same measure for `C[C@H](Nc1nc(N)nc(N)c1C#N)c1nc2cccc(Cl)c2c(=O)n1-c1cccc(CC(F)F)c1`: 1 to 10 nM; for `CC[C@H](Nc1nc(N)nc(N)c1C#N)c1nc2c(F)cc(F)cc2c(=O)n1-c1cc(F)cc(F)c1`: 10 to 50 nM; for `C[C@H](Nc1nc(N)nc(N)c1C#N)c1nc2cccc(C(N)=O)c2c(=O)n1-c1ccccc1`: 1 to 10 nM. In turn, `C[C@H](Nc1nc(N)nc(N)c1C#N)c1nc2cccc(F)c2c(=O)n1-c1cc(F)cc(Cl)c1` had a concentration for half-maximal inhibition (IC50) of 10 to 50 nM.

Turning to `C[C@H](Nc1nc(N)nc(N)c1C#N)c1nc2c(Cl)cc(F)cc2c(=O)n1-c1cc(F)cc(F)c1`, the IC50 lay within 1 to 10 nM.

For the compound `C[C@H](Nc1nc(N)nc(N)c1C#N)c1nc2cccc(F)c2c(=O)n1-c1cc(F)cc(C#N)c1`, the IC50 lay within 10 to 50 nM. `C[C@H](Nc1nc(N)nc(N)c1C#N)c1nc2c(F)ccc(Cl)c2c(=O)n1-c1cc(F)cc(C#N)c1` registered an IC50 of 10 to 50 nM. Under `C[C@H](Nc1nc(N)nc(N)c1C(N)=O)c1nc2cccc(Cl)c2c(=O)n1-c1ccccc1` stands no more than 1 nM; under `CC(C)C[C@H](Nc1nc(N)nc(N)c1C#N)c1nc2cccc(Cl)c2c(=O)n1-c1cccc(F)c1`, 1 to 10 nM. The compound `C[C@H](Nc1nc(N)nc(N)c1C#N)c1nc2cccc(O)c2c(=O)n1-c1ccccc1` showed a half-inhibitory concentration (IC50) of no more than 1 nM. As to `COc1cc(F)cc(-n2c([C@H](C)Nc3nc(N)nc(N)c3C#N)nc3cccc(Cl)c3c2=O)c1`, the IC50 was in the range of 1 to 10 nM.

In turn, `C[C@H](Nc1nc(N)nc(N)c1C#N)c1nc2c(F)ccc(F)c2c(=O)n1-c1cc(F)cc(F)c1` came in with an IC50 of 1 to 10 nM. `C[C@H](Nc1nc(N)nc(N)c1C#N)c1nc2ccc(F)cc2c(=O)n1-c1cccc(C#N)c1`: the IC50 lay in the range of 10 to 50 nM. The same measure for `CC[C@H](Nc1nc(N)nc(N)c1C#N)c1nc2cccc(C)c2c(=O)n1-c1cc(F)cc(F)c1`: no more than 1 nM; for `Cc1cccc2nc([C@H](C)Nc3nc(N)nc(N)c3C#N)n(-c3cc(F)cc(F)c3)c(=O)c12`: no more than 1 nM; for `CC(C)[C@H](Nc1nc(N)nc(N)c1C#N)c1nc2cccc(Cl)c2c(=O)n1-c1ccccc1`: no more than 1 nM. Compound `C[C@H](Nc1nc(N)nc(N)c1C#N)c1nc2cccc(Cl)c2c(=O)n1-c1cc(Cl)cc(Cl)c1` showed an IC50 of 1 to 10 nM. As for `C[C@H](Nc1ncnc(N)c1C#N)c1nc2cccc(Cl)c2c(=O)n1-c1cc(F)cc(F)c1`, the IC50 fell in the range of 1 to 10 nM. Under `Cc1cccc2c(=O)n(-c3ccccc3)c([C@H](C)Nc3nc(N)nc(N)c3C#N)nc12` stands 1 to 10 nM; under `C[C@H](Nc1nc(N)nc(N)c1C#N)c1nc2c(F)cccc2c(=O)n1-c1ccccc1`, 1 to 10 nM; under `C[C@H](Nc1nc(N)nc(N)c1C#N)c1nc2cccc(Cl)c2c(=O)n1-c1cc(F)cc(C#N)c1`, 1 to 10 nM. The compound `C[C@H](Nc1nc(N)nc(N)c1C#N)c1nc2cccc(Cl)c2c(=O)n1-c1cccc(C(F)(F)F)c1` had an IC50 of 1 to 10 nM. `CC[C@H](Nc1nc(N)nc(N)c1C#N)c1nc2cccc(F)c2c(=O)n1-c1cccc(F)c1` showed an IC50 of 1 to 10 nM. `C[C@H](Nc1nc(N)nc(N)c1C#N)c1nc2c(C#N)cccc2c(=O)n1-c1cc(F)cc(F)c1` registered an IC50 of 1 to 10 nM. The same measure for `C[C@H](Nc1nc(N)nc(N)c1C#N)c1nc2cccc(Cl)c2c(=O)n1-c1cc(F)cc(C(F)(F)F)c1`: 1 to 10 nM; for `C[C@H](Nc1nc(N)nc(N)c1C#N)c1nc2c(C(F)F)cccc2c(=O)n1-c1ccccc1`: 10 to 50 nM. In turn, `CC[C@H](Nc1nc(N)nc(N)c1C#N)c1nc2cccc(C(F)F)c2c(=O)n1-c1cc(F)cc(F)c1` registered an IC50 of 1 to 10 nM. `C[C@H](Nc1nc(N)nc(N)c1C#N)c1nc2cccc(S(C)(=O)=O)c2c(=O)n1-c1cccc(C(F)F)c1` had an IC50 of 1 to 10 nM. Consider `C[C@H](Nc1nc(N)nc(N)c1C#N)c1nc2cccc(C(F)F)c2c(=O)n1-c1ccccc1`, for which the IC50 is no more than 1 nM. Consider `C[C@H](Nc1nc(N)nc(N)c1C#N)c1nc2c(C#N)cc(F)cc2c(=O)n1-c1cc(F)cc(F)c1`, for which the IC50 lay within 10 to 50 nM. On to `CCc1cccc2c(=O)n(-c3cc(F)cc(F)c3)c([C@H](C)Nc3nc(N)nc(N)c3C#N)nc12`, for which the IC50 was 10 to 50 nM. `C[C@H](Nc1nc(N)nc(N)c1C#N)c1nc2cccc(F)c2c(=O)n1-c1ccccc1` came in with an IC50 of 1 to 10 nM.

As to `Cc1cccc2c(=O)n(-c3cccc(C(F)(F)F)c3)c([C@H](C)Nc3nc(N)nc(N)c3C#N)nc12`, the IC50 is 10 to 50 nM. `C[C@H](Nc1nc(N)nc(N)c1C#N)c1nc2c(F)cc(F)cc2c(=O)n1-c1cc(F)cc(F)c1` registered an IC50 of 10 to 50 nM.

Regarding `C[C@H](Nc1nc(N)nc(N)c1C#N)c1nc2c(F)ccc(C#N)c2c(=O)n1-c1ccccc1`, the IC50 was 1 to 10 nM. The same measure for `Cc1cccc2nc([C@H](C)Nc3nc(N)nc(N)c3C#N)n(-c3cc(F)cc(C#N)c3)c(=O)c12`: 1 to 10 nM; for `C[C@H](Nc1nc(N)nc(N)c1C#N)c1nc2cccc(Cl)c2c(=O)n1-c1cc(F)cc(OC(F)(F)F)c1`: 1 to 10 nM; for `COc1cc(C(F)F)cc(-n2c([C@H](C)Nc3nc(N)nc(N)c3C#N)nc3cccc(Cl)c3c2=O)c1`: 1 to 10 nM. With `Cc1ccc(F)c2nc([C@H](C)Nc3nc(N)nc(N)c3C#N)n(-c3ccccc3)c(=O)c12`, the concentration for half-maximal inhibition (IC50) is no more than 1 nM.

Take `C[C@H](Nc1nc(N)nc(N)c1C#N)c1nc2cccc(Cl)c2c(=O)n1-c1cc(F)cc(C(F)F)c1`: the IC50 was no more than 1 nM. With `COc1cc(OC)cc(-n2c([C@H](C)Nc3nc(N)nc(N)c3C#N)nc3cccc(Cl)c3c2=O)c1`, the half-maximal inhibitory concentration (IC50) was 1 to 10 nM. The compound `Cc1ccc(Cl)c2c(=O)n(-c3cccc(Cl)c3)c([C@H](C)Nc3nc(N)nc(N)c3C#N)nc12` had an IC50 of no more than 1 nM. Under `C[C@H](Nc1nc(N)nc(N)c1C#N)c1nc2cccc(C#N)c2c(=O)n1-c1cc(F)cc(F)c1` stands 1 to 10 nM.

The compound `C[C@H](Nc1nc(N)nc(N)c1C#N)c1nc2c(F)ccc(Cl)c2c(=O)n1-c1cccc(C#N)c1` had a concentration for half-maximal inhibition (IC50) of 1 to 10 nM. Under `C[C@H](Nc1nc(N)nc(N)c1C#N)c1nc2cccc(C#N)c2c(=O)n1-c1cccc(F)c1` stands 1 to 10 nM. Under `Cc1ccc(F)c2nc([C@H](C)Nc3nc(N)nc(N)c3C#N)n(-c3cc(F)cc(C#N)c3)c(=O)c12` stands 1 to 10 nM; under `C[C@H](Nc1nc(N)nc(N)c1C#N)c1nc2c(C#N)cc(F)cc2c(=O)n1-c1ccccc1`, 1 to 10 nM; under `Cc1ccc(Cl)c2c(=O)n(-c3ccccc3)c([C@H](C)Nc3nc(N)nc(N)c3C#N)nc12`, no more than 1 nM. `C[C@H](Nc1nc(N)nc(N)c1C#N)c1nc2cccc(Cl)c2c(=O)n1-c1c(F)cccc1F`: the IC50 lay within 1 to 10 nM. Compound `CC(C)c1cccc(-n2c([C@H](C)Nc3nc(N)nc(N)c3C#N)nc3cccc(Cl)c3c2=O)c1` yielded an IC50 of 1 to 10 nM. In the case of `CC[C@H](Nc1nc(N)nc(N)c1C#N)c1nc2c(C)ccc(F)c2c(=O)n1-c1cc(F)cc(F)c1`, the IC50 was in the range of 10 to 50 nM.
